Experiment [1] deals with SNU-16 cells. Briefly: CCK-8 cell proliferation assay, SNU-16. The format is cell-based. To be noted: Homo sapiens; SNU-16, CCK-8, Fig. 3. Here is the method:
(§1) During the logarithmic growth phase, each cell line was seeded in a 96-well tissue culture plate (Thermo Fisher Scientific, Waltham, MA, USA) at a predetermined density in complete medium, attached overnight and treated with compound for the indicated time. The medium was discarded and replaced with 10% CCK-8 (Dojindo, Kumamoto, Japan) in complete medium, then incubated the plates for another 2 h. The OD450 was measured with SpectraMax M5 (Molecular Devices, CA, USA). A background absorbance of ODblank was subtracted from all wells. The survival rate was determined with following formula: Survival rate (%) = ODcompound/ODDMSO × 100%. The IC50 values were calculated by concentration − response curve fitting using the four parameter method.
For orientation: Formazan colour is commonly taken as a measure of viable cells.

Experiment [2] deals with T1, Aurora B (Homo sapiens, UniProt Q96GD4).
T1 construct: gift from Professor Jia Li, Shanghai Institute of Materia Medica/Chinese Academy of Sciences
Briefly: HTRF KinEASE-STK kinase assay, Aurora B. The format is biochemical. From the text:
(§2) The inhibition of TY-011 on activity of Aurora A, Aurora B and VEGFR2 was characterized by HTRF® KinEASE™-STK/TK kit according to the manufacturer’s instructions (Cisbio Assays, Codolet, France). Aurora A and Aurora B were gifts from Professor Jia Li, Shanghai Institute of Materia Medica/Chinese Academy of Sciences. VEGFR2 was purchased from Carna Biosciences (Kobe, Japan).
On the technique in general: Time-resolved FRET reads energy transfer from a long-lived donor to a nearby acceptor.

Experiment [3] has as its system p-Histone H3 (S10), substrate of Aurora B. The experiment in a line: Cellular Histone H3 phosphorylation (western blot, immunofluorescence) in MGC-803 cells. Format: cell-based, human. As to the method: (§3) The proteins of whole cell lysates were prepared in RIPA buffer containing protease and phosphatase inhibitors (Thermo Fisher Scientific, Waltham, MA, USA), and quantified by the bicinchoninic acid (BCA) method. Immunoblotting analysis of proteins in cell lysates was performed as previously described. Primary antibodies used were as follows: anti-Aurora A (#12100), anti-p-Aurora A (Thr288) (#3079), anti-Histone H3 (#4499), and anti-p-Histone H3 (Ser10) (#9701), and anti-cleaved caspase 3 (#9661) were purchased from Cell Signaling Technology (Danvers, MA, USA); anti-PARP-1 (#sc-8007) and anti-GAPDH (#sc-25778) were purchased from Santa Cruz (CA, USA).
(§4) Cells were cultured on glass slides coated with 0.05 mg/ml PDL (Sigma-aldrich, St. Louis, MO, USA) in the presence of TY-011 (0.8 μM) or equivalent amount of DMSO for 24 h. The cells were fixed in 4% paraformaldehyde at room temperature, then permeabilized with 0.15% Triton-X100 and blocked in 3% BSA in PBS. The primary antibodies were incubated with slides at 1:100 dilution in PBS containing 3% BSA in a wet chamber at 4 °C overnight. […] The images were captured with FCFM (fluorescence confocal microscope) (Olympus FV1000 IX81, Tokyo, Japan) under appropriate excitation and emission filters or phase-contrast microscope (Olympus IX73, Tokyo, Japan). […]

In experiment [4] the target is T2, VEGFR2 (Homo sapiens, UniProt P35968).
T2 construct: purchased Carna Biosciences (Kobe, Japan)
The experiment in a line: HTRF KinEASE-TK kinase assay, VEGFR2. Format: biochemical. The settings on record: mean ± SD of three independent experiments.
Description: as §2

The subject of experiment [5] is AGS cells. Briefly: CCK-8 cell proliferation assay, AGS. The format is cell-based. To be noted: Homo sapiens, CCK-8, Fig. 3. As to the method:
as §1

Experiment [6] deals with MGC-803 cells. Briefly: Annexin V/PI apoptosis analysis, MGC-803. The format is cell-based, human. To be noted: 48 h (7.8% control). Here is the method:
Apoptosis was detected by FITC Annexin V Apoptosis Detection Kit I according to the manufacturer’s instructions (Dojindo, Kumamoto, Japan) to determine the phosphatidyl serine exposure. Apoptotic cells were quantified by a flow cytometer (Guava EasyCyte 6HT-2 L, Merck Millipore, Billerica, MA, USA) using the InCyte software. At least 10 000 cells were analyzed for each data point.

In experiment [7] the test system is p-Aurora A (T288). The experiment in a line: Cellular Aurora A phosphorylation (western blot, immunofluorescence) in MGC-803 cells. The format is cell-based, human. As to the method: as §3, §4
For orientation: In western blotting, separated proteins are transferred to a membrane and probed.

Experiment [8] deals with MGC-803 cells. Briefly: CCK-8 cell proliferation assay, MGC-803. Format: cell-based. The settings on record: Homo sapiens. Here is the method:
as §1

Experiment [9] relates to MGC-803 xenograft tumor tissues. Briefly: TUNEL staining of xenograft tumor tissues. The format is in vivo, BALB/c nu/nu mice. To be noted: 9 mg/kg. From the text:
Female BALB/c nu/nu mice (5–6 weeks, 16–18 g) were obtained from Sino-British SIPPR/BK Lab. Animal Ltd, Shanghai, China, with the certification number of 2008001638201. The animals were housed in specific pathogen-free (SPF) conditions at Key Laboratory of Brain Functional Genomics, Ministry of Education, and were acclimatized for a week prior to use. Human MGC-803 xenografts were established by subcutaneously inoculating 5 × 10^6 cells into nude mice. When the tumors reached a mean group size of 100 ~ 150 mm^3, the mice were randomized into control and treatment groups to receive treatment accordingly. TY-011 was orally administered at 3, 6 and 9 mg/kg once a day for 13 days. […] The tumor growth was recorded with the measurement of length (L) and width (W) by caliper every other day, and calculated as tumor volume (V) = L × W^2/2. Meanwhile, the body weights of mice were recorded. The tumor volume at day n was expressed as relative tumor volume (RTV) according to the following formula: RTV% = (TVn/TV0) ×100%, where TVn is the tumor volume at day n and TV0 is the tumor volume at day 0. The therapeutic effect of treatment was calculated with formula T/C (%) = mean RTV of the treated group/mean RTV of the control group × 100%. […] The tumor regression of individual mouse was defined as the tumor volume at the end was less than the tumor volume when treatment was initiated. […]

Setting [10] is: MGC-803 synchronized with nocodazole (100 nM) 16 h, then various concentrations for 24 h.

Read-outs that look alike come from different tables or passages of the source.

T1 sequence (Q96GD4 whole entry): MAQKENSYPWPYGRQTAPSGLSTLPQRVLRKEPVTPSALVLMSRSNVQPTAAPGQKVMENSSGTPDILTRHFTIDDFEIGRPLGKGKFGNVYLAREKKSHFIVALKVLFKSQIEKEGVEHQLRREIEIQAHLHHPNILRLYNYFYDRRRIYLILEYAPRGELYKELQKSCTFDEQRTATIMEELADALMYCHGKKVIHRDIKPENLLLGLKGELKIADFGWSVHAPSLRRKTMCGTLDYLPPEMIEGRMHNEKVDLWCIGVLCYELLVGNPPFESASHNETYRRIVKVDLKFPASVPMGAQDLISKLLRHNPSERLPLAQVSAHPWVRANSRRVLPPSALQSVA
T2 sequence (P35968 790-1356 limits assumed): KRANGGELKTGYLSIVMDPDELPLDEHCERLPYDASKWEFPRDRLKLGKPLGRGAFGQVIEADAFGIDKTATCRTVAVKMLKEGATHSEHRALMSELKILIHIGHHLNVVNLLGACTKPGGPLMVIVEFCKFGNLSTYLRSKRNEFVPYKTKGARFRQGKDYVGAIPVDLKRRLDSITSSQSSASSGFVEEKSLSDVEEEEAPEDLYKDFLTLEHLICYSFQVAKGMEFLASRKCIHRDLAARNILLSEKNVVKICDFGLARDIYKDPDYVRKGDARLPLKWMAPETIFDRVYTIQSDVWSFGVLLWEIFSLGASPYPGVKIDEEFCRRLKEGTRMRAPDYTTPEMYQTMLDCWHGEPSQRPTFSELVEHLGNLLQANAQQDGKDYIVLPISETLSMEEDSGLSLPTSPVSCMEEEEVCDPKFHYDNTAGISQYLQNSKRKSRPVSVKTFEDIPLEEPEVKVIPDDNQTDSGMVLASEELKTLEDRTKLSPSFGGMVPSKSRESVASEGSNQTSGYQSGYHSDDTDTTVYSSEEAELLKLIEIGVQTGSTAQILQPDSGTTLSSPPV

`CCc1cc2c(cn1)C(c1ccccc1Cl)=Nc1c(n[nH]c1C)N2` [TY-011, 9-(2-chloro-phenyl)-6-ephyl-1-methyl-2,4-dihydro-2,3,4,7,10-pentaaza-benzo[f]azulene]: the IC50 (usually the concentration that inhibits the measured activity by half) was determined as 90 ± 20 nM in [1]; 90 nM in [2] (Table S1, read-out: IC50 Aurora B); 93.9 ± 33.7 nM in [2] (mean ± SD of three independent experiments, read-out: Aurora B IC50); 103 ± 6.2 nM in [4]; 960 ± 100 nM in experiment [5]; 210 nM in experiment [8] (MGC-803, Table S1, proliferation, read-out: IC50 MGC-803). The IC50 in experiment [8] (MGC-803, CCK-8, Fig. 3, read-out: IC50) is 190 ± 20 nM. Moreover, in experiment [3] (MGC-803, 0.8 μM, 24 h), the “p-Histone H3 (S10), immunofluorescence” value is “decreased sharply”. The “phosphorylation of Histone H3 (S10), western blot” value in [3] (setting [10]) is “strongly inhibited”. In addition, the apoptosis in experiment [6] (MGC-803, 0.1 μM) amounted to 39.3%; in experiment [6] (MGC-803, 0.2 μM), 78.2%; in [6] (MGC-803, 0.4 μM) it was 86.1%. Further, the “Aurora A green foci in mitotic cells, immunofluorescence” value in experiment [7] (MGC-803, 0.8 μM, 24 h) is “became weaker or even disappeared”. In addition, the “p-Aurora A (T288), western blot” value in [7] (setting [10]) is given as “decreased in a concentration-dependent manner”. For the same compound, the “apoptosis in tumor tissues (TUNEL)” value in experiment [9] is given as “obvious increase in apoptosis”.

The record behind these values is article PMC5124248, “Antitumor activity of TY-011 against gastric cancer by inhibiting Aurora A, Aurora B and VEGFR2 kinases” (Journal of Experimental & Clinical Cancer Research : CR, 2016).
